The results in this text go back to publication PMC11874377, “Fungal-derived methyldeoxaphomins target Plasmodium falciparum segregation through the inhibition of PfActin1” (Proceedings of the National Academy of Sciences of the …, 2025).

The test system of data set [1] is P. falciparum. The data set can be described thus: Parasite reduction ratio (PRR). The class given is cell-based, Plasmodium falciparum. Particulars: 10 × EC50. The procedure:
After a 24 h lag phase, only 10^0.64 parasites are killed within the first replication cycle (48 h). […] We also examined the in vitro killing rate in Dd2 through flow cytometric analysis. […]
Parasite reduction ratio adapted from protocol by Sanz et al (Sanz et al., 2012). In brief, early ring stage mono-infected RBCs at 106 were incubated with a 10 x EC50 concentration of NPDG-F, DHA, or atovaquone for either 24, 48, 72, 96, or 120 h. Following incubations, cells were washed and serially diluted. After 3 weeks, growth was determined via SYBR […]
Green I staining. […]

In data set [2] the test system is P. falciparum. The data set can be described thus: Isobologram assay with NPDG-F. The class given is cell-based, Plasmodium falciparum. To be noted: for IC50: single compounds, dose–response, Fig. 3A, read-out: Mean IC50 ± SEM; for relationship with NPDG-F at low concentrations: low / very low concentrations; for relationship with NPDG-F at higher concentrations: moderate to high / higher concentrations. On the procedure:
To further explore the relationship of NPDG-F with established actin-interfering drugs, an isobologram study was performed (Fig. 3). NPDG-F was added in combination with four inhibtors known to interfere with actin polymerization including a formin inhibitor SMIFH2, cofilin inhibitor SZ-3, F-actin targeting compound jasplakinolide, and G-actin targeting latrunculin B. The frontline antimalarial DHA was also added as a nonactin inhibitor control. After dose–response curves were generated (Fig. 3A), the fractional inhibitory concentrations (FICs) of NPDG-F and the combination drug were calculated and graphed. […]
(§1) Plasmodium blood stage culture
(§2) Parasite culture in the Chakrabarti lab was maintained following a modified Trager and Jensen protocol (Trager & Jensen, 1976) as previously described (Lee et al., 2021) with RPMI 1640 with 25 mM HEPES pH 7.4, 26 mM NaHCO3, 15 mg/L hypoxanthine, 0.5% Albumax II, 25 mg/L gentamycin, and 2% dextrose. Parasites were grown with human A+ erythrocytes obtained from Florida OneBlood. Cultures were kept in an incubator with 5% […]
(§3) Antiplasmodial activity screening
SYBR Green I-based fluorescence assay was performed as previously described (Lee et al., 2021) following protocols by Smilkstein et. al. (Smilkstein et al., 2004). Asynchronous Dd2 parasites were added to serially diluted compounds and incubated for 72 h at 5% CO2, 95% air at 37°C. Plates were then frozen at -80°C, thawed, and incubated for one hour with 1x SYBR Green I in a lysis buffer (20 mM Tris-HCL, 0.08% saponin, 5 mM EDTA, and 0.8% Triton X-100). Fluorescence was then read on a Synergy Neo2 multimode reader (BioTek Winsooki, VT). Compound dose response curves and EC50 determination was performed using CDD Vault normalized to 10 µM CQ and vehicle […]
For isobologram assessment, inhibitors were tested using a 1:2 dilution with starting concentrations selected as 40 nM for DHA, 100 µM Latrunculin B, 100 µM SMIFH2, and 40 nM for jasplakinolide. These concentrations were selected to provide 2-3 points above […]
EC50s. The test inhibitor methyldeoxaphomin NPDG-F was then added in combination with the aforementioned inhibitors at concentrations ranging from 10 to 0.3125 µM. Dose-response curves were then generated for the available conditions where EC50s could be determined. The fractional inhibitor concentration of both compounds was then determined as described (Fivelman et al., 2004) for the available points and graphed on a scale of 0-1 also using Graphpad Prism version 10. […]

In data set [3] the test system is P. falciparum multidrug resistant line Dd2. The experiment in a line: SYBR Green I-based antiplasmodial assay, asexual blood stage, Dd2. The class given is cell-based, Plasmodium falciparum. The procedure:
(§4) The antiplasmodial activity of these analogs was assessed in P. falciparum asexual blood stage using a SYBR Green I-based assay. Compounds were tested in both the multidrug resistant line Dd2, and the chloroquine-sensitive line 3D7, to probe any potential for preexisting resistance. […] These methyldeoxaphomin analogs were also cross-screened for cytotoxicity in the human cell line HepG2 to determine their selectivity for the Plasmodium parasite. […] This effect was maintained with analog NPDG-F where both R1 and R2 were substituted with OH groups. […] In addition, the hydroxyl group at carbon 7 seems to be critical for function as a drastic loss of potency was found in NPDG-D as compared to B and C. […]
as §1, §2, §3
(§5) SYBR Green I-based fluorescence assay was performed as previously described (Lee et al., 2021) following protocols by Smilkstein et. al. (Smilkstein et al., 2004). Asynchronous Dd2 parasites were added to serially diluted compounds and incubated for 72 h at 5% CO2, 95% air at 37°C. Plates were then frozen at -80°C, thawed, and incubated for one hour with 1x SYBR Green I in a lysis buffer (20 mM Tris-HCL, 0.08% saponin, 5 mM EDTA, and 0.8% Triton X-100). Fluorescence was then read on a Synergy Neo2 multimode reader (BioTek Winsooki, VT). […]

Data set [4] deals with P. falciparum chloroquine-sensitive line 3D7. The data set can be described thus: SYBR Green I-based antiplasmodial assay, asexual blood stage, 3D7. The format is cell-based, Plasmodium falciparum. On the procedure:
as §4, §1, §2, §3, §5

The test system of data set [5] is human HepG2 hepatoma cells. The data set can be described thus: cells. The class given is cell-based. The procedure: as §4
Cytotoxicity was assessed using an MTS (3-(4,5-Dimethylthiazol-2-yl)-5-(3-carboxymethoxyphenyl)-2-(4-sulfophenyl)-2H-tetrazolium) absorbance assay with human HepG2 hepatoma cells. Cells were maintained in MEM supplemented with 10%FBS, 1% Antibiotic/Antimycotic, 1 mM sodium pyruvate, and 0.15% sodium bicarbonate in a 5 % CO2, 95% air environment at 37°C. For the assay cells were seeded at a density of 2,250 cells per well on 384-well microtiter plates 24 h prior to compound addition. Following a 48-h incubation with compounds, MTS solution was added to wells and absorbance was read after 2-4 h on a Synergy Neo2 multimode reader (BioTek Winsooki, VT). Compound dose response curves and EC50 determination was performed using CDD Vault normalized to 5% triton and vehicle controls. […]

The mark [6] stands for this setting: Plasmodium falciparum, DD2, 72 h, read-out: Dd2 EC50, means from triplicate experiments ± SEM, 72 h.
The mark [7] stands for this setting: Plasmodium falciparum, DD2, read-out: Dd2: Average EC50, average ± SEM of three replicates.
The mark [8] stands for this setting: Plasmodium falciparum, DD2, read-out: Dd2: EC50, individual replicates.
The mark [9] stands for this setting: Plasmodium falciparum, 3D7, average ± SEM of three replicates, read-out: 3D7: Average EC50.
The mark [10] stands for this setting: Plasmodium falciparum, 3D7, individual replicates, read-out: 3D7: EC50.
The mark [11] stands for this setting: Plasmodium falciparum, 3D7, means from triplicate experiments ± SEM, read-out: 3D7 EC50.
[12] abbreviates: Homo sapiens, HepG2, 48 h, means from triplicate experiments ± SEM, 48-h incubation, read-out: HepG2 EC50.
Where [13] appears, read: Homo sapiens, HepG2, average ± SEM of three replicates, read-out: HepG2: Average EC50.
[14] abbreviates: Homo sapiens, HepG2, individual replicates, read-out: HepG2: EC50.
Where [15] appears, read: individual replicates, read-out: HepG2: EC50.

Each structure is given as a SMILES string. “And” between values parts separate entries of the source, which are not always exact repeats. Identical values can stand only once. Like-named read-outs stand apart in the source and are kept apart here.

For the compound `C[C@H]1[C@@H](O)O[C@@H]2O[C@@]3(C)CC[C@H]4[C@H](C)CC[C@@H]1[C@@]24OO3` [DHA, dihydroartemisinin], in the data set with P. falciparum [1], the “99.9% PCT (parasite clearance time)” value was determined as 32.5 h and the lag phase was 0 h. The concentration for half-maximal inhibition (IC50) with P. falciparum [2] (Plasmodium falciparum) came to 0.005 ± 0.001 µM. In the data set on P. falciparum [2], the “relationship with NPDG-F at low concentrations” value is listed as “somewhat synergistic” and the “relationship with NPDG-F at higher concentrations” value was “antagonistic”.

`C=C1[C@@H](C)[C@H]2[C@H](Cc3ccccc3)NC(=O)[C@]23C(=O)/C=C/C(=O)C[C@@H](C)C[C@H](C)C/C=C/[C@H]3[C@@H]1O` [Methyldeoxaphomin NPDG-A]: the EC50 in data set [3] (setting [6]), in data set [3] (setting [7]), in data set [3] (setting [8]), in data set [4] (setting [9]), in data set [4] (setting [10]) and in data set [4] (setting [11]) was more than 5 µM throughout. Besides, the 50% effective concentration (EC50) in data set [5] (setting [12]), in data set [5] (setting [13]) and in data set [5] (setting [14]) was more than 25 µM each time. Besides, the “cytotoxicity in HepG2 at the highest concentration tested” value in data set [5] (25 µM) was “no inhibition”.

Regarding `CC1CC=CC2C=C(CO)C(C)C3C(Cc4ccccc4)NC(=O)C23C(=O)C=CC(=O)C(O)C(C)C1` (stereo not shown) [Methyldeoxaphomin NPDG-D], the half-maximal effective concentration (EC50) in data set [3] (setting [6]), in data set [3] (setting [7]), in data set [3] (setting [8]), in data set [4] (setting [9]), in data set [4] (setting [10]) and in data set [4] (setting [11]) was more than 5 µM in each case. For the same compound, the EC50 is 8.2 µM in data set [5] (setting [12]), 8.2 ± 0.07 µM in data set [5] (setting [13]), 8.3 µM in data set [5] (setting [14]) and 8.1 µM in data set [5] (setting [15]).

Consider `C=C1C(C)C2C(Cc3ccccc3)NC(=O)C23C(=O)C=CC(O)CC(C)CC(C)CC=CC3C1O` (stereo not shown) [Methyldeoxaphomin NPDG-E], for which the 50% effective concentration (EC50) in data set [3] (setting [6]) was 2.6 µM; in data set [3] (setting [7]), 2.6 ± 0.31 µM; in data set [3] (setting [8]), 2.22 µM; in data set [3] (read-out: Dd2: EC50, individual replicates) it was 3.18 µM and 2.28 µM; in data set [4] (setting [9]), 2.8 ± 0.14 µM; in data set [4] (setting [10]), 2.67 µM. For the same compound, the EC50 was 2.8 ± 0.14 µM in data set [4] (setting [11]); 2.6 µM and 3.04 µM in data set [4] (individual replicates, read-out: 3D7: EC50); 23 µM in data set [5] (setting [12]); 23 ± 0.92 µM in data set [5] (setting [13]); 21.3 µM in data set [5] (setting [14]); 24.7 µM and 23.2 µM in data set [5] (setting [15]). The “Selectivity Index (SI)” value in data set [5] (HepG2 EC50/(mean of Dd2 EC50, 3D7 EC50)) was found to be 9.

Turning to `O=C1NC(=S)N(c2cccc(Br)c2)C(=O)/C1=C/c1ccco1` [SMIFH2], in the data set on P. falciparum [2], the “relationship with NPDG-F at low concentrations” value is on record as “primarily indifferent”, the “relationship with NPDG-F at higher concentrations” value was “antagonistic” and the IC50 was 11.3 ± 1.35 µM.

In the case of `O=C1C(O)=C([C@H]2CC[C@H](c3ccc(Cl)cc3)CC2)C(=O)c2ccccc21` [atovaquone], in the data set with P. falciparum [1], the “99.9% PCT (parasite clearance time)” value was “more than 96 h”, the lag phase was found to be 24 h and the “log(PRR)” value was found to be 5.12.

`C/C1=C/C(=O)O[C@@H]2C[C@@H](CC[C@H](C)/C=C\CC1)O[C@@](O)([C@@H]1CSC(=O)N1)C2` [latrunculin B]: the “fractional inhibitory concentration (FIC)” value with P. falciparum [2] (combination with NPDG-F) is reported as “highest FIC values overall”. Besides, the IC50 in the data set on P. falciparum [2] amounted to 34.1 ± 1.51 µM.

As a reminder, the IC50 is the midpoint of a concentration-inhibition curve. What is called EC50 is the concentration that produces a half-maximal response.
